≈ marks a conversion by molar mass, not a printed value.

For this series the following is noted: buffer; pH 7.4; 200.0 µM.
In general, solubility (kinetic) refers to the concentration staying in solution when a stock, usually in DMSO, is diluted into the medium. Regarding `COc1cc(/C=C/C(=O)OCC(=O)Nc2cccc(F)c2)ccc1O`, the solubility (kinetic) is 24.6 µg/mL (≈ 71.2 µM).

The compound `Cc1ccccc1C(=O)NC(C)C1CC2CCC1C2` (configuration not stated) had a solubility (kinetic) of 28.5 µg/mL (≈ 111 µM). For `O=C(NCc1ccncc1)C(=O)NCc1ccncc1`, the solubility (kinetic) is above 40.5 µg/mL. In turn, `O=C(CCCN1C(=O)c2cccc3cccc(c23)C1=O)NCc1ccco1` yielded a kinetic solubility of 1.5 µg/mL (≈ 4.14 µM). In the case of `CS(=O)(=O)N(CC(=O)N1CCCC1)c1cccc(F)c1` it was 44.3 µg/mL (≈ 147 µM).

As for `O=C(NC12CC3CC(CC(C3)C1)C2)c1ccc(N2CCNCC2)c([N+](=O)[O-])c1`, the kinetic solubility was found to be 40.8 µg/mL (≈ 106 µM). The solubility kinetic values of the last two compounds are within 1.5-fold of each other. The figure for `COc1ncnc(-c2ccccc2)c1-c1ccccc1` is 14.9 µg/mL (≈ 56.8 µM). In the case of `N/C(=N\O)c1ccc(N2CCN(c3ncccc3C(F)(F)F)CC2)nc1` it was 51.7 µg/mL (≈ 141 µM); in that of `O=C(O)C(NS(=O)(=O)c1ccccc1)C(O)c1ccccc1` (configuration not stated), 33.9 µg/mL (≈ 105 µM).

`O=C(O)CCN1CCN(S(=O)(=O)c2ccc3ccccc3c2)CC1` had a solubility (kinetic) of 44.5 µg/mL (≈ 128 µM). The figure for `COc1cc(CCC(=O)Nc2ncc(C)s2)cc(OC)c1OC` is 18.8 µg/mL (≈ 55.9 µM); for `O=C(CSc1ccc2ccccc2n1)c1ccccc1` it is 1.5 µg/mL (≈ 5.37 µM); for `Cc1cc(NCc2cccnc2)no1` it is 28 µg/mL (≈ 148 µM). `Cc1cnc(C(=O)OCC(=O)c2ccc(F)c(F)c2)cn1` gave a kinetic solubility above 43.8 µg/mL. The figure for `CCN(CC)c1nc2ccccc2[nH]c1=O` is 10.7 µg/mL (≈ 49.2 µM); for `N/C(=N\OC(=O)CC1CCCCC1)c1cccc(Br)c1` it is 0.6 µg/mL (≈ 1.77 µM); for `COC(=O)c1ccc(COC(=O)c2cccnc2Cl)cc1` it is 37.8 µg/mL (≈ 124 µM). On to `CCOc1ccc(-c2cn3ccccc3n2)cc1`, for which the solubility (kinetic) stood at 18.1 µg/mL (≈ 76 µM). In turn, `COc1ccc(-c2csc3ncnc(NCCCO)c23)cc1` registered a solubility (kinetic) of 42.2 µg/mL (≈ 134 µM). The figure for `Clc1ccc(-c2nc(NCCCN3CCOCC3)c3ccccc3n2)cc1` is 1.4 µg/mL (≈ 3.66 µM); for `COc1ccc(C(=O)NCCc2ccccc2)cc1OC` it is 40.1 µg/mL (≈ 141 µM); for `CC(=O)N(C1=NCCCS1)c1ccccc1Cl` it is above 40.3 µg/mL.

`CCC(C(=O)OCC(=O)Nc1ccc(OC)cc1OC)c1ccccc1` (configuration not stated) yielded a kinetic solubility of 3.5 µg/mL (≈ 9.79 µM). In the case of `COc1ccc(F)cc1S(=O)(=O)NCCCn1ccnc1` it was above 47 µg/mL.

Consider `COc1ccccc1CNS(=O)(=O)c1cc(C(=O)NCC2CCCO2)c(Cl)cc1Cl` (configuration not stated), for which the kinetic solubility is above 71 µg/mL. `Cc1ccnc(NC(=O)c2ccc(C(=O)c3ccccc3)cc2)c1` had a kinetic solubility of 25.8 µg/mL (≈ 81.6 µM). The figure for `Cc1nc(SC(C(N)=O)c2ccccc2)c(C#N)c(C)c1C` (configuration not stated) is 1 µg/mL (≈ 3.21 µM); for `CCCCOc1ccc(C(=O)N=c2sccn2C)cc1OC` it is 35.7 µg/mL (≈ 111 µM); for `COC(=O)c1[nH]c2ccccc2c1NC(=O)c1c(F)cccc1F` it is 1.1 µg/mL (≈ 3.33 µM). `Cc1ccc2[nH]c3c(c2c1)SC(C)(C)CC3=O` had a kinetic solubility of 0.8 µg/mL (≈ 3.26 µM).

Regarding `CC(C)CCN1C(=O)c2ccc(C(=O)OCC(=O)N(CC(C)C)C3CCS(=O)(=O)C3)cc2C1=O` (configuration not stated), the solubility (kinetic) stood at 46.8 µg/mL (≈ 95 µM). In the case of `Cc1ccc(-c2c(C)sc3nc[nH]c(=O)c23)cc1C` it was 39.7 µg/mL (≈ 147 µM); in that of `Cc1ccc(C(=O)CCC(=O)Nc2ccccc2C)cc1C`, below 0.6 µg/mL; in that of `Clc1ncc(CN2CCN(c3ccccc3)CC2)s1`, 40.9 µg/mL (≈ 139 µM). `Cc1ccc(C(=O)NCCCNC(=O)c2ccc(Cl)cc2)cn1`: the kinetic solubility was 36.6 µg/mL (≈ 110 µM). In the case of `COc1ccc(S(=O)(=O)N(C)C(C)CCc2ccco2)cc1` (configuration not stated) it was 35 µg/mL (≈ 108 µM); in that of `COc1ccc(S(=O)(=O)Nc2cccnc2)cc1OC`, above 44.1 µg/mL; in that of `COC(=O)C1CCN(C(=O)c2ccc(Cl)c(S(=O)(=O)NCc3ccco3)c2)CC1`, 53.6 µg/mL (≈ 122 µM).

In turn, `COC(=O)CNC(=O)c1ccc(F)cc1` yielded a solubility (kinetic) of 27.1 µg/mL (≈ 128 µM). As to `N#Cc1ccccc1NC(=S)Nc1ccc(F)cc1`, the solubility (kinetic) came to 35.1 µg/mL (≈ 129 µM). Regarding `CCOC(=O)C1CCN(C(=O)CSc2nc3ncccc3[nH]2)CC1`, the solubility (kinetic) was 51.5 µg/mL (≈ 148 µM). In the case of `NS(=O)(=O)c1cccc(NC(=O)CSc2nc3ccccc3c(=O)n2Cc2ccco2)c1` it was 6.4 µg/mL (≈ 13.6 µM). In turn, `Cc1cnc(SCc2cnc(C)nc2N)nc1` registered a solubility (kinetic) above 37.1 µg/mL. The figure for `CCN(Cc1nc(-c2ccccc2)no1)C(=O)c1ccc2c(c1)OCO2` is 36.5 µg/mL (≈ 104 µM); for `O=C(Nc1ccc(Cl)cn1)c1cccc2ccccc12` it is 1.3 µg/mL (≈ 4.6 µM); for `Cc1cc(-c2onc3ccc(Cl)cc23)ccc1O` it is 16.3 µg/mL (≈ 62.8 µM). As to `O=C(c1cc2cc(F)ccc2[nH]1)N1CCN(c2ccc(F)cc2)CC1`, the kinetic solubility was 0.3 µg/mL (≈ 0.879 µM). This solubility kinetic lies about 54-fold lower than the previous one. The compound `CSc1nc(C)nc(N/C=C(\C#N)S(=O)(=O)c2ccccc2Cl)n1` came in with a solubility (kinetic) of 15.6 µg/mL (≈ 40.9 µM). The figure for `COc1ccc2c(c1)-c1nc(/N=C/c3c(O)ccc4ccccc34)sc1CC2` is 27.1 µg/mL (≈ 70.1 µM); for `CC1CC(C)CN(CCOc2cccc3ccccc23)C1` (configuration not stated) it is 34.1 µg/mL (≈ 120 µM); for `O=C(CN1C(=O)NC2(CCCCCC2)C1=O)NC1CC1` it is above 41.9 µg/mL. `Cc1ccc(C)c(N2N=C(C(=O)O)CCC2=O)c1` displayed a solubility (kinetic) above 36.9 µg/mL.

Source of the values: PubChem BioAssay AID1996.
